# Source: patent US20250051403A1, “ANTIMICROBIAL PEPTIDES, VARIANTS AND CHEMICAL ANALOGUES THEREOF AND THEIR USES” (priority 2021, published 2025)
# Positions of bridges follow the written chain, without caps; N, C: chain ends. Residues, ends and D or L forms follow the SMILES beside them.
# Key:
# [1] = tested on: Vibrio alginolyticus
# [2] = tested on: M. smegmatis mc^2155
# [3] = tested on: Mycobacterium tuberculosis mc^26230
# [4] = tested on: P. aeruginosa
Structure (SMILES),MIC [1] [µM],MIC [2] [µM],V. alginolyticus MIC [1] [µM],M. tuberculosis mc^26230 MIC [3] [µM],M. smegmatis mc^2155 MIC [2] [µM],P. aeruginosa MIC [4] [µM]
CC[C@H](C)[C@H](NC(=O)[C@H](CCCNC(=N)N)NC(=O)[C@@H](NC(=O)[C@H](CS)NC(=O)[C@@H](NC(=O)[C@@H](N)CCCNC(=N)N)C(C)C)C(C)C)C(=O)N[C@@H](CS)C(=O)N[C@@H](CCCNC(=N)N)C(=O)N[C@@H](CC(N)=O)C(=O)NCC(=O)N[C@@H](CCCNC(=N)N)C(=O)N[C@@H](CS)C(=O)N[C@@H](Cc1ccc(O)cc1)C(=O)N[C@@H](CCCNC(=N)N)C(=O)N[C@@H](CCCNC(=N)N)C(=O)N[C@@H](CS)C(=O)N[C@@H](Cc1c[nH]c2ccccc12)C(=O)N[C@@H](CC(N)=O)C(=O)N[C@H](C(=O)O)[C@@H](C)O [Linear unfolded analogue of Michelicin] (H-RVCVRICRNGRCYRRCWNT-OH; N-terminus and C-terminus assumed),0.625,1.25,–,–,–,–
"CC(C)[C@@H]1NC(=O)[C@H](CCCNC(=N)N)NC(=O)[C@H](C(C)C)NC(=O)[C@@H](NC(=O)[C@@H](NC(=O)[C@@H](N)CCCNC(=N)N)C(C)C)CSSC[C@@H](C(=O)N[C@@H](Cc2c[nH]c3ccccc23)C(=O)N[C@@H](CC(N)=O)C(=O)N[C@H](C(=O)O)[C@@H](C)O)NC(=O)[C@H](CCCNC(=N)N)NC(=O)[C@H](CCCNC(=N)N)NC(=O)[C@H](Cc2ccc(O)cc2)NC(=O)[C@@H]2CSSC[C@H](NC1=O)C(=O)N[C@@H](CCCNC(=N)N)C(=O)N[C@@H](CC(N)=O)C(=O)NCC(=O)N[C@@H](CCCNC(=N)N)C(=O)N2 [V1, RVC1VRVC2RNGRC3YRRC4WNT] (H-RVCVRVCRNGRCYRRCWNT-OH; disulfide 3-16, 7-12; N-terminus and C-terminus assumed)",–,–,0.125 to 0.312,29.8 to 30.2,1.15 to 4.21,2.5 to 5
"CC[C@H](C)[C@@H]1NC(=O)[C@@H]2CSSC[C@H](NC(=O)[C@H](C(C)C)NC(=O)[C@H](CCCNC(=N)N)NC(=O)[C@H](C(C)C)NC(=O)[C@@H](NC(=O)[C@H](Cc3ccccc3)NC(=O)[C@@H](N)CCCNC(=N)N)CSSC[C@@H](C(=O)N[C@@H](Cc3c[nH]c4ccccc34)C(=O)N[C@@H](CC(N)=O)C(=O)N[C@H](C(=O)O)[C@@H](C)O)NC(=O)[C@H](CCCCN)NC(=O)[C@H](CCSC)NC1=O)C(=O)N[C@@H](CCCNC(=N)N)C(=O)N[C@@H](CC(N)=O)C(=O)NCC(=O)N[C@@H](CCCNC(=N)N)C(=O)N2 [V2, RFC1VRVC2RNGRC3IMKC4WNT] (H-RFCVRVCRNGRCIMKCWNT-OH; disulfide 3-16, 7-12; N-terminus and C-terminus assumed)",–,–,0.312 to 0.625,19.7 to 30.0,0.72 to 2.95,2.5 to 5
"CC[C@H](C)[C@@H]1NC(=O)[C@@H]2CSSC[C@H](NC(=O)[C@H](C(C)C)NC(=O)[C@H](CCCNC(=N)N)NC(=O)[C@H](C(C)C)NC(=O)[C@@H](NC(=O)[C@@H](NC(=O)[C@@H](N)CCCNC(=N)N)[C@@H](C)CC)CSSC[C@@H](C(=O)N[C@@H](Cc3c[nH]c4ccccc34)C(=O)N[C@@H](CC(N)=O)C(=O)N[C@H](C(=O)O)[C@@H](C)O)NC(=O)[C@H](CCCCN)NC(=O)[C@H](CCSC)NC1=O)C(=O)N[C@@H](CCCNC(=N)N)C(=O)N[C@@H](CC(N)=O)C(=O)NCC(=O)N[C@@H](CCCNC(=N)N)C(=O)N2 [V3, RIC1VRVC2RNGRC3IMKC4WNT] (H-RICVRVCRNGRCIMKCWNT-OH; disulfide 3-16, 7-12; N-terminus and C-terminus assumed)",–,–,0.625 to 1.25,22.9 to 29.6,0.64 to 4.66,2.5 to 5
"CC[C@H](C)[C@H](NC(=O)[C@@H](N)CCCNC(=N)N)C(=O)N[C@H]1CSSC[C@@H](C(=O)N[C@@H](Cc2c[nH]c3ccccc23)C(=O)N[C@@H](CC(N)=O)C(=O)N[C@H](C(=O)O)[C@@H](C)O)NC(=O)[C@H](CCCCN)NC(=O)[C@H](CCSC)NC(=O)[C@H](Cc2ccccc2)NC(=O)[C@@H]2CSSC[C@H](NC(=O)[C@H](C(C)C)NC(=O)[C@H](CCCNC(=N)N)NC(=O)[C@H](C(C)C)NC1=O)C(=O)N[C@@H](CCCNC(=N)N)C(=O)N[C@@H](CC(N)=O)C(=O)NCC(=O)N[C@@H](Cc1ccccc1)C(=O)N2 [V4, RIC1VRVC2RNGFC3FMKC4WNT] (H-RICVRVCRNGFCFMKCWNT-OH; disulfide 3-16, 7-12; N-terminus and C-terminus assumed)",–,–,0.312 to 0.625,7.5 to 7.9,1.49 to 4.15,2.5 to 5
"CC[C@H](C)[C@@H]1NC(=O)[C@H](Cc2ccccc2)NC(=O)[C@H](CC(C)C)NC(=O)[C@@H]2CSSC[C@H](NC(=O)[C@H](CCCNC(=N)N)NC1=O)C(=O)N[C@@H](Cc1ccccc1)C(=O)N[C@@H](CCSC)C(=O)N[C@@H](CCCCN)C(=O)N[C@H](C(=O)N[C@@H](Cc1c[nH]c3ccccc13)C(=O)N[C@@H](CC(N)=O)C(=O)N[C@H](C(=O)O)[C@@H](C)O)CSSC[C@H](NC(=O)[C@H](Cc1ccccc1)NC(=O)[C@@H](N)CCCNC(=N)N)C(=O)N[C@@H](C(C)C)C(=O)N[C@@H](CCCNC(=N)N)C(=O)N[C@@H](C(C)C)C(=O)N2 [V5, RFC1VRVC2LFIRC3FMKC4WNT] (H-RFCVRVCLFIRCFMKCWNT-OH; disulfide 3-16, 7-12; N-terminus and C-terminus assumed)",–,–,0.625 to 1.25,5.3 to 7.9,3.06 to 8.40,>20
"CC[C@H](C)[C@H](NC(=O)[C@@H](N)CCCNC(=N)N)C(=O)N[C@H]1CSSC[C@@H](C(=O)N[C@@H](Cc2c[nH]c3ccccc23)C(=O)N[C@@H](CC(N)=O)C(=O)N[C@H](C(=O)O)[C@@H](C)O)NC(=O)[C@H](CCCCN)NC(=O)[C@H](CCSC)NC(=O)[C@H](Cc2ccccc2)NC(=O)[C@@H]2CSSC[C@H](NC(=O)[C@H](C(C)C)NC(=O)[C@H](CCCNC(=N)N)NC(=O)[C@H](C(C)C)NC1=O)C(=O)N[C@@H](CCCNC(=N)N)C(=O)N[C@@H](CC(N)=O)C(=O)NCC(=O)N[C@@H](CCCNC(=N)N)C(=O)N2 [V6, RIC1VRVC2RNGRC3FMKC4WNT] (H-RICVRVCRNGRCFMKCWNT-OH; disulfide 3-16, 7-12; N-terminus and C-terminus assumed)",–,–,0.125 to 0.312,>30,1.27 to 2.96,>5
"CSCC[C@@H]1NC(=O)[C@H](Cc2ccccc2)NC(=O)[C@@H]2CSSC[C@H](NC(=O)[C@H](C(C)C)NC(=O)[C@H](CCCNC(=N)N)NC(=O)[C@H](C(C)C)NC(=O)[C@@H](NC(=O)[C@@H](NC(=O)[C@H](CO)NC(=O)[C@@H](NC(=O)[C@H](C)NC(=O)[C@H](CCCCN)NC(=O)[C@@H](N)CCCNC(=N)N)C(C)C)[C@@H](C)O)CSSC[C@@H](C(=O)N[C@@H](Cc3c[nH]c4ccccc34)C(=O)N[C@@H](CC(N)=O)C(=O)N[C@H](C(=O)O)[C@@H](C)O)NC(=O)[C@H](CCCCN)NC1=O)C(=O)N[C@@H](CCCNC(=N)N)C(=O)N[C@@H](CC(N)=O)C(=O)NCC(=O)N[C@@H](Cc1ccccc1)C(=O)N2 [V7, RKAVSTC2VRVC3RNGFC4FMKCWNT] (H-RKAVSTCVRVCRNGFCFMKCWNT-OH; disulfide 7-20, 11-16 (inferred); N-terminus and C-terminus assumed)",–,–,0.125 to 0.312,>30,9.22 to 13.1,2.5 to 5
"CC[C@H](C)[C@@H]1NC(=O)[C@H](CCCNC(=N)N)NC(=O)[C@H](C(C)C)NC(=O)[C@@H](NC(=O)[C@@H](NC(=O)[C@@H](N)CCCNC(=N)N)C(C)C)CSSC[C@@H](C(=O)N[C@@H](Cc2c[nH]c3ccccc23)C(=O)N[C@@H](CC(N)=O)C(=O)N[C@H](C(=O)O)[C@@H](C)O)NC(=O)[C@H](CCCCN)NC(=O)[C@H](CCSC)NC(=O)[C@H](Cc2ccccc2)NC(=O)[C@@H]2CSSC[C@H](NC1=O)C(=O)N[C@@H](CCCNC(=N)N)C(=O)N[C@@H](CC(N)=O)C(=O)NCC(=O)N[C@@H](Cc1ccccc1)C(=O)N2 [V8, RVC1VRIC2RNGFC3FMKC4WNT] (H-RVCVRICRNGFCFMKCWNT-OH; disulfide 3-16, 7-12; N-terminus and C-terminus assumed)",–,–,0.125 to 0.312,7.3 to 11.9,0.72 to 3.92,1.25 to 2.5
"CSCC[C@@H]1NC(=O)[C@H](Cc2ccccc2)NC(=O)[C@@H]2CSSC[C@H](NC(=O)[C@H](C(C)C)NC(=O)[C@H](CCCNC(=N)N)NC(=O)[C@H](C(C)C)NC(=O)[C@@H](NC(=O)[C@@H](NC(=O)[C@@H](N)CCCNC(=N)N)C(C)C)CSSC[C@@H](C(=O)N[C@@H](Cc3c[nH]c4ccccc34)C(=O)N[C@@H](CC(N)=O)C(=O)N[C@H](C(=O)O)[C@@H](C)O)NC(=O)[C@H](CCCCN)NC1=O)C(=O)N[C@@H](CCCNC(=N)N)C(=O)N[C@@H](CC(N)=O)C(=O)NCC(=O)N[C@@H](Cc1ccccc1)C(=O)N2 [V9, RVC1VRVC2RNGFC3FMKC4WNT] (H-RVCVRVCRNGFCFMKCWNT-OH; disulfide 3-16, 7-12; N-terminus and C-terminus assumed)",–,–,0.125 to 0.312,5.1 to 9.1,1.02 to 3.31,1.25 to 2.5
